Values after ≈ are worked out from the molar mass of the structure shown.
What was measured:
[1] = tested on: Mycobacterium tuberculosis; test: microbe, parasite or virus in culture; conditions: H37Rv, 192 h
Description: Antibacterial activity against Mycobacterium tuberculosis H37Rv assessed as inhibition of bacterial growth measured after 8 days by Alamar blue reagent based broth microdilution method

[2] = molecular target: DNA gyrase subunit A/DNA gyrase subunit B (Mycobacterium tuberculosis (strain ATCC 25618 / H37Rv), UniProt P9WG45+P9WG47); test: Inhibition of Mycobacterium tuberculosis H37Rv DNA gyrase
Escherichia coli = test: microbe, parasite or virus in culture; conditions: ATTC 25922, 192 h
Staphylococcus aureus = test: microbe, parasite or virus in culture; conditions: ATTC 25923, 192 h
[3] = tested on: Mycobacterium tuberculosis; test: microbe, parasite or virus in culture; conditions: H37Rv, 264 h
Description: Antibacterial activity against Mycobacterium tuberculosis H37Rv gyrA -FDASTetON-1 hypomorph assessed as inhibition of bacterial growth incubated for 11 days

[4] = tested on: Mycobacterium tuberculosis; test: microbe, parasite or virus in culture; conditions: H37Rv, 264 h; remark: listed apart in the source
Description: Antibacterial activity against wild type Mycobacterium tuberculosis H37Rv assessed as inhibition of bacterial growth incubated for 11 days

DNA gyrase = DNA gyrase (Staphylococcus aureus, UniProt P0A0K8+P20831)
DNA gyrase, sequence (P0A0K8 whole entry): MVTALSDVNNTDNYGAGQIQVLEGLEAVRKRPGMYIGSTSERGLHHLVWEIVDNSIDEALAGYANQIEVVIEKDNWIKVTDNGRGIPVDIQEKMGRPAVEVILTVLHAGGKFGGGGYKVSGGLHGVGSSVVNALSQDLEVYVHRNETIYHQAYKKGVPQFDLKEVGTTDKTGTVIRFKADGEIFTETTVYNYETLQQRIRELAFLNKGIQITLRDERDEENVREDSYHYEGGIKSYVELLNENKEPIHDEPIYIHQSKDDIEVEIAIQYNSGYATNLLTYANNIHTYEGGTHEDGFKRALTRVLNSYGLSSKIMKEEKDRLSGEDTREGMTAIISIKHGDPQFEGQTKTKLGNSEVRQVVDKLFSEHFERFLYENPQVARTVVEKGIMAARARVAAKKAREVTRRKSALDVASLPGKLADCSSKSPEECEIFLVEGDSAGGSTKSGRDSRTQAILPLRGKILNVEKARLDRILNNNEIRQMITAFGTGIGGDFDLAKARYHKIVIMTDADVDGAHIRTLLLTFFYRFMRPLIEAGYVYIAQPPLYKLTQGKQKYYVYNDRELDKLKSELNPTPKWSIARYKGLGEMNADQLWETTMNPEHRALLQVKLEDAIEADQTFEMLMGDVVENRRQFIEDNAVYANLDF
DNA gyrase, sequence (P20831 whole entry): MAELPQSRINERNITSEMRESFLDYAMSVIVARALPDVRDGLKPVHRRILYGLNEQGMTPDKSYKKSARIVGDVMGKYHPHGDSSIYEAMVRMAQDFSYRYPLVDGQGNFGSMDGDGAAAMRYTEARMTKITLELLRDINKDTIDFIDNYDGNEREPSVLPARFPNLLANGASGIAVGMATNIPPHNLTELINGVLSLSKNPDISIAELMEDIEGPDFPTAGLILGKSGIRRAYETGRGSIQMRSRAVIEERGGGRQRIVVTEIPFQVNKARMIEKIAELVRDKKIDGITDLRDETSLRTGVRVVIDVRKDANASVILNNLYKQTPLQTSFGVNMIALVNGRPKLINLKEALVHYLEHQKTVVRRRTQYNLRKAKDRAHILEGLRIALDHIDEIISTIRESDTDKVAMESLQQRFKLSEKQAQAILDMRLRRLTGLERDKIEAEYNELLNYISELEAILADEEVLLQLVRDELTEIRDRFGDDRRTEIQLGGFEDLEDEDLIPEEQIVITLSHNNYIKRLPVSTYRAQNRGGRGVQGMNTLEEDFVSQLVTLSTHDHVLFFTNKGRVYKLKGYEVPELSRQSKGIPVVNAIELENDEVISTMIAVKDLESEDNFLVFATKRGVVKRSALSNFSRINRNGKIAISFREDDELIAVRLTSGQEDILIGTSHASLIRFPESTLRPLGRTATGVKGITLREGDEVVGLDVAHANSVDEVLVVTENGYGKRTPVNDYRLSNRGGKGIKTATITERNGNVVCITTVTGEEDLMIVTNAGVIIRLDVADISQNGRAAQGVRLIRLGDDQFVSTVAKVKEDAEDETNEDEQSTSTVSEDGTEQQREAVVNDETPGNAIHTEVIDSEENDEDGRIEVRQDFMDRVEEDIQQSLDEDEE

DNA gyrase subunit A/DNA gyrase subunit B, sequence (P9WG45 whole entry): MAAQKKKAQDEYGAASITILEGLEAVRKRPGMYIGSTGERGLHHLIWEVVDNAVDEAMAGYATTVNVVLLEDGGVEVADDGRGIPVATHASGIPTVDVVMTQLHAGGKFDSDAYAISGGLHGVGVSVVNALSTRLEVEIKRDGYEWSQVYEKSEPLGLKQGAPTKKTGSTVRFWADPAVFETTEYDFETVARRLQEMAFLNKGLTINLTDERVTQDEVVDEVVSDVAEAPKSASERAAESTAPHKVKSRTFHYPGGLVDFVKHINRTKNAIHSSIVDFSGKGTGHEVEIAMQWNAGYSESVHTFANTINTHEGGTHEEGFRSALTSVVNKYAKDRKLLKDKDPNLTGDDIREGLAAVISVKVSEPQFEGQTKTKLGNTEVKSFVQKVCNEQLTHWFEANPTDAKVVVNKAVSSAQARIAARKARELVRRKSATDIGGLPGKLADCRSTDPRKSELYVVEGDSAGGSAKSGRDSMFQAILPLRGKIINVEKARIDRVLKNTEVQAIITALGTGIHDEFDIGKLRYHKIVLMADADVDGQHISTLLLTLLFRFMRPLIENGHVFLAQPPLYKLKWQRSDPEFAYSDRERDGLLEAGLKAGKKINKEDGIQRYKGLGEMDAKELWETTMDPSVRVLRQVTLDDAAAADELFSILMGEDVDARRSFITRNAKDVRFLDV
DNA gyrase subunit A/DNA gyrase subunit B, sequence (P9WG47 whole entry): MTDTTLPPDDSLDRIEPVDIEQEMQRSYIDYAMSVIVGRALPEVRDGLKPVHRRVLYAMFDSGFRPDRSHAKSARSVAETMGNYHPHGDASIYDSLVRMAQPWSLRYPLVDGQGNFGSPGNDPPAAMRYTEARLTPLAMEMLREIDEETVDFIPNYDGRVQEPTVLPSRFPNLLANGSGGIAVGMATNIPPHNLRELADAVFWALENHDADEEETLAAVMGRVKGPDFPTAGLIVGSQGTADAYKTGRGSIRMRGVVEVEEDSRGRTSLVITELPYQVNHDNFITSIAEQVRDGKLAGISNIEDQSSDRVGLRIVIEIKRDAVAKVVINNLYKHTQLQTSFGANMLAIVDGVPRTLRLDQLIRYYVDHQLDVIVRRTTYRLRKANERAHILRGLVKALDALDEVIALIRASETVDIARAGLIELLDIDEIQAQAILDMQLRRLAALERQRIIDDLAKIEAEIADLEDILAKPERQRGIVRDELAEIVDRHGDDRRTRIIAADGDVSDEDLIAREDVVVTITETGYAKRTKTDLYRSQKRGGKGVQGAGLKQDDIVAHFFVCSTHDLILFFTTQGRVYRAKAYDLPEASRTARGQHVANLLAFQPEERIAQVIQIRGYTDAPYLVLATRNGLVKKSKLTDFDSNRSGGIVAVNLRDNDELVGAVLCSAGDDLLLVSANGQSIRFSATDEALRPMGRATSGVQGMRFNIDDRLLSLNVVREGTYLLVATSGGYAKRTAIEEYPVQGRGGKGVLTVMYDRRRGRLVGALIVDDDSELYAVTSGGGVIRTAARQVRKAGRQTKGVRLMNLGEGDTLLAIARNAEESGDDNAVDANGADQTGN

SMILES	MIC [1] [µM]	MIC (Escherichia coli) [µM]	MIC (Staphylococcus aureus) [µM]	also measured
C[C@@H]1CN2c3c(cc4c(N5CC[C@H](N)C5)noc4c3F)CC3(C(=O)NC(=O)NC3=O)[C@H]2[C@H](C)O1	63 (≈ 29.8 µg/mL)	125 (≈ 59.1 µg/mL)	125 (≈ 59.1 µg/mL)	IC50 [2]: 34 µM
C[C@@H]1CN2c3c(cc4c(OC[C@H]5CCC(=O)N5)noc4c3F)CC3(C(=O)NC(=O)NC3=O)[C@H]2[C@H](C)O1	> 125			
C[C@@H]1CN2c3c(cc4c(N5C(=O)OC[C@@H]5C)noc4c3F)CC3(C(=O)NC(=O)NC3=O)[C@H]2[C@H](C)O1 [ZOLIFLODACIN]	0.35 (≈ 0.171 µg/mL)	1.4 (≈ 0.682 µg/mL)		solubility kinetic at 20 h, 200 µM (physchem): 160 µM (≈ 78 µg/mL); MIC50 [3]: 4.6 µM (≈ 2.24 µg/mL); MIC99 [3]: 12 µM (≈ 5.85 µg/mL); MIC50 [4]: 20 µM (≈ 9.75 µg/mL); MIC99 [4]: 44 µM (≈ 21.4 µg/mL)
C[C@@H]1CN2c3c(cc4c(-n5cncn5)noc4c3F)CC3(C(=O)NC(=O)NC3=O)[C@H]2[C@H](C)N1C#N	0.98 (≈ 0.47 µg/mL)	63 (≈ 30.2 µg/mL)	16 (≈ 7.67 µg/mL)	
CC(=O)N1[C@H](C)CN2c3c(cc4c(N5C(=O)OC[C@@H]5C)noc4c3F)CC3(C(=O)NC(=O)NC3=O)[C@H]2[C@@H]1C	> 125	> 125	> 125	
C[C@@H]1CN2c3c(cc4c(OC[C@@H]5CCC(=O)N5)noc4c3F)CC3(C(=O)NC(=O)NC3=O)[C@H]2[C@H](C)N1C#N	0.49 (≈ 0.257 µg/mL)	> 125	> 125	
C[C@@H]1CN2c3c(cc4c(N5C(=O)OC[C@@H]5C)noc4c3F)CC3(C(=O)NC(=O)NC3=O)[C@H]2[C@H](C)N1	> 125	31 (≈ 15.1 µg/mL)	63 (≈ 30.6 µg/mL)	
C[C@@H]1CN2c3c(cc4c(N5CCC[C@H](O)C5)noc4c3F)CC3(C(=O)NC(=O)NC3=O)[C@H]2[C@H](C)O1	16 (≈ 7.8 µg/mL)		94 (≈ 45.8 µg/mL)	
C[C@@H]1CN2c3c(cc4c(OC[C@@H]5COC(=O)N5)noc4c3F)CC3(C(=O)NC(=O)NC3=O)[C@H]2[C@H](C)O1	2 (≈ 1.01 µg/mL)	> 250		
C[C@@H]1CN2c3c(cc4c(N5CCC[C@@H](O)C5)noc4c3F)CC3(C(=O)NC(=O)NC3=O)[C@H]2[C@H](C)O1	10 (≈ 4.87 µg/mL)	> 125		
C[C@@H]1CN2c3c(cc4c(N5C(=O)OC[C@@H]5C)noc4c3F)CC3(C(=O)NC(=O)NC3=O)[C@H]2[C@H](C)N1O	> 125	> 125	> 125	
CO[C@H]1/C=C/O[C@@]2(C)Oc3c(C)c(O)c4c(O)c(c(/C=N/N5CCN(C)CC5)c(O)c4c3C2=O)NC(=O)/C(C)=C\C=C\[C@H](C)[C@H](O)[C@@H](C)[C@@H](O)[C@@H](C)[C@H](OC(C)=O)[C@@H]1C [RIFAMPIN]				MIC50 [3]: 0.021 µM (≈ 0.0173 µg/mL); MIC99 [3]: 0.037 µM (≈ 0.0304 µg/mL); MIC50 [4]: 0.24 µM (≈ 0.198 µg/mL); MIC99 [4]: 0.041 µM (≈ 0.0337 µg/mL)
C[C@@H]1CN2c3c(cc4c(N5C(=O)OC[C@@H]5C)noc4c3F)CC3(C(=O)NC(=O)NC3=O)[C@H]2[C@H](C)N1CC#N	> 125	> 125	> 125	
C[C@@H]1CN2c3c(cc4c(N5C[C@@H](O)[C@@H](O)C5)noc4c3F)CC3(C(=O)NC(=O)NC3=O)[C@H]2[C@H](C)O1	16 (≈ 7.83 µg/mL)			
C[C@@H]1CN2c3c(cc4c(N5CC[C@H](O)C5)noc4c3F)CC3(C(=O)NC(=O)NC3=O)[C@H]2[C@H](C)N1C#N	7.8 (≈ 3.88 µg/mL)	> 125		MIC50 [3]: 1.75 µM (≈ 0.871 µg/mL); MIC99 [3]: 5.05 µM (≈ 2.51 µg/mL); MIC50 [4]: 5.35 µM (≈ 2.66 µg/mL); MIC99 [4]: 10.3 µM (≈ 5.12 µg/mL); IC50 (DNA gyrase): 3.1 µM
C[C@@H]1CN2c3c(cc4c(OC[C@H]5CCC(=O)O5)noc4c3F)CC3(C(=O)NC(=O)NC3=O)[C@H]2[C@H](C)O1	3.9 (≈ 1.96 µg/mL)	> 250	> 250	
Cc1nnc(-c2noc3c(F)c4c(cc23)CC2(C(=O)NC(=O)NC2=O)[C@H]2[C@H](C)[C@@H](O)[C@H](C)CN42)o1	16 (≈ 7.75 µg/mL)	> 250	> 250	
C[C@@H]1CN2c3c(cc4c(OC[C@H]5COC(=O)N5)noc4c3F)CC3(C(=O)NC(=O)NC3=O)[C@H]2[C@H](C)O1			63 (≈ 31.7 µg/mL)	
C[C@@H]1CN2c3c(cc4c(N5CC[C@@H](O)C5)noc4c3F)CC3(C(=O)NC(=O)NC3=O)[C@H]2[C@H](C)N1C#N			> 125	
C[C@@H]1CN2c3c(cc4c(OCC[C@@H]5CCC(=O)N5)noc4c3F)CC3(C(=O)NC(=O)NC3=O)[C@H]2[C@H](C)O1	3.9 (≈ 2.01 µg/mL)	> 125	31 (≈ 16 µg/mL)	
C[C@@H]1CN2c3c(cc4c(OC[C@@H]5CCC(=O)N5C)noc4c3F)CC3(C(=O)NC(=O)NC3=O)[C@H]2[C@H](C)O1	3.9 (≈ 2.01 µg/mL)	63 (≈ 32.5 µg/mL)	63 (≈ 32.5 µg/mL)	
C[C@@H]1CN2c3c(cc4c(OC[C@@H]5CCC(=O)N5)noc4c3F)CC3(C(=O)NC(=O)NC3=O)[C@H]2[C@H](C)O1	1 (≈ 0.501 µg/mL)	> 125	> 125	IC50 [2]: 2.6 µM

— ChEMBL document CHEMBL5154899, “Spiropyrimidinetrione DNA Gyrase Inhibitors with Potent and Selective Antituberculosis Activity” (J Med Chem, 2022)
